COC(=O)NCCCCCCNC(=O)OC
solubility (mole fraction)
Details | 298.15 K | 300.15 K | 303.15 K | 308.15 K | 313.15 K | 318.15 K | 323.15 K | 328.15 K | 333.15 K
in dimethyl carbonate | 0.00596 | 0.00689 | 0.00839 | 0.0117 | 0.0161 | 0.0207 | 0.026 | 0.0338 | 0.042
in ethanol | 0.0155 | 0.0179 | 0.0205 | 0.0279 | 0.0355 | 0.0463 | 0.0625 | 0.0769 | 0.0987
in ethyl acetate | 0.00814 | 0.00976 | 0.0124 | 0.0176 | 0.0233 | 0.029 | 0.0369 | 0.0445 | 0.0536
in toluene | 0.00731 | 0.00912 | 0.0111 | 0.0167 | 0.0232 | 0.0353 | 0.0462 | 0.0614 | 0.0824
in water | 6.21e-05 | 6.92e-05 | 7.91e-05 | 0.000106 | 0.000146 | 0.000185 | 0.00025 | 0.000339 | 0.000439

From BigSolDB 2.1
